Structures are written as SMILES. Like-named read-outs stand apart in the source and are kept apart here.

Type in all cases: in vivo
The test system of assay [1] is Beet Armyworm (Spodoptera exigua, LAPHEG). Nature of the assay: Bioassays on Beet Armyworm (BAW), 128-well diet tray assay. The settings on record: Spodoptera exigua. In a few lines:
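Percent larval mortality, averaged across eight wells, scored after five to seven days at 25° C. under 14:10 light-dark. Each well held one to five second instars feeding on diet dosed at 50 μg/cm^2 with compound from 90:10 acetone-water, solvent dried off.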

The test system of assay [2] is Green Peach Aphid (Myzus persicae, MYZUPE). Nature of the assay: Bioassays on Green Peach Aphid (GPA), foliar spray on cabbage seedlings. The settings on record: 72 h. Summed up:
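Percent control (Abbott-corrected versus solvent-sprayed plants) comes from live-aphid counts three days after treatment at about 25° C. Test solution at 200 ppm was sprayed to runoff onto both leaf surfaces of cabbage seedlings infested a day earlier with 20-50 aphids; four replicate pots.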

Assay [3] has as its system Cabbage Looper (Trichoplusia ni, TRIPNI). Nature of the assay: Bioassays on Cabbage Looper (CL), 128-well diet tray assay. The settings on record: Trichoplusia ni. Summed up: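 Diet tray, 2nd instar, 1–5 larvae/well; 50 μg/cm^2 compound surface-applied (acetone:water 90:10), dried; 8 wells/treatment; 25° C, 14:10 L:D, 5–7 d; % mortality, mean of 8 wells.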
The test system of assay [4] is Yellow Fever Mosquito (Aedes aegypti, AEDSAE). The settings on record: for YFM rating: Table ABC / ABC-DP rating. In a few lines:
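Larvae ~1 day old, in liver powder/water; compound from 4000 ppm DMSO stock diluted with water/acetone (90:10); 6 reps; lidded, RT, 3 d; mortality scored per well, rated.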

Where [5] appears, read: Beet Armyworm, rating class, read-out: BAW.
The mark [6] stands for this setting: Green Peach Aphid, rating class, read-out: GPA.
[7] abbreviates: Cabbage Looper, rating class, read-out: CL.
Where [8] appears, read: Yellow Fever Mosquito, rating class.
Setting [9] is: Beet Armyworm, Table ABC / ABC-DP rating, read-out: BAW rating.
[10] abbreviates: Green Peach Aphid, Table ABC / ABC-DP rating, read-out: GPA rating.
[11] abbreviates: Cabbage Looper, Table ABC / ABC-DP rating, read-out: CL rating.
The mark [12] stands for this setting: Table ABC: Biological Results, species BAW, read-out: BAW.
Where [13] appears, read: Table ABC: Biological Results, species GPA, read-out: GPA.
[14] abbreviates: Table ABC: Biological Results, species CL, read-out: CL.
Setting [15] is: Table ABC: Biological Results, species YFM.

With `CCCCC(=O)Nc1c(F)ccc(NC(=O)c2cc(NC(=O)[C@H]3[C@H](c4ccc(Cl)c(Cl)c4)C3(Cl)Cl)ccc2Cl)c1F` [F1474, 2-Chloro-5-((1R,3R)-2,2-dichloro-3-(3,4-dichlorophenyl)cyclopropane-1-carboxamido)-N-(2,4-difluoro-3-pentanamidophenyl)benzamide], the pest or weed control at 50 µg/cm2 in assay [1] (setting [5]) and in assay [3] (setting [7]) was 50 to 100% throughout. In addition, in assay [2] (setting [6]), the pest or weed control at 200 µg/mL was in the range of 0 to 80%. The YFM entry in assay [4] (setting [8]) is reported as “A (80–100)”.
For the compound `CC(=O)Nc1c(F)cc(F)c(NC(=O)c2cc(NC(=O)[C@H]3[C@H](c4ccc(F)c(Cl)c4)C3(Cl)Cl)ccc2Cl)c1F` [F1627, N-(3-Acetamido-2,4,6-trifluorophenyl)-2-chloro-5-((1R,3R)-2,2-dichloro-3-(3-chloro-4-fluorophenyl)cyclopropane-1-carboxamido)benzamide], the pest or weed control at 50 µg/cm2 in assay [1] (setting [5]) and in assay [3] (setting [7]) was 50 to 100% in each case. Moreover, the pest or weed control at 200 µg/mL in assay [2] (setting [6]) lay within 80 to 100%. For the same compound, in assay [4] (setting [8]), the YFM entry is given as “A (80–100)”.
Take `Cc1cc(NC(=O)[C@H]2[C@H](c3ccc(F)c(Cl)c3)C2(Cl)Cl)cc(C(=O)NCCCCl)c1Cl` (relative stereo) [F2040, trans-2-Chloro-N-(3-chloropropyl)-5-(2,2-dichloro-3-(3-chloro-4-fluorophenyl)cyclopropane-1-carboxamido)-3-methylbenzamide]: the pest or weed control at 50 µg/cm2 in assay [1] (setting [9]) and in assay [3] (setting [11]) was 50 to 100% each time. The pest or weed control at 200 µg/mL in assay [2] (setting [10]) lay within 0 to 80%. In assay [4] (Yellow Fever Mosquito), the YFM rating result is “A (80–100)”.
With `CCOC(C)C(=O)Nc1c(F)ccc(NC(=O)c2cc(NC(=O)[C@H]3[C@H](c4ccc(F)c(C(F)(F)F)c4)C3(Cl)Cl)ccc2Cl)c1F` (stereo partly drawn) [F1364, 2-Chloro-5-((1R,3R)-2,2-dichloro-3-(4-fluoro-3-(trifluoromethyl)phenyl)cyclopropane-1-carboxamido)-N-(3-(2-ethoxypropanamido)-2,4-difluorophenyl)benzamide], the pest or weed control at 50 µg/cm2 in assay [1] (setting [12]) and in assay [3] (setting [14]) was 50 to 100% throughout. Moreover, the pest or weed control at 200 µg/mL in assay [2] (setting [13]) fell in the range of 0 to 80%. Moreover, the YFM entry in assay [4] (setting [15]) is on record as “A (80–100)”.
Regarding `O=C(Nc1cc(NC(=O)C(F)(F)F)c(F)cc1F)c1cc(NC(=O)[C@H]2[C@H](c3ccc(Cl)c(Cl)c3)C2(Cl)Cl)ccc1Cl` [F1245, 2-Chloro-5-((1R,3R)-2,2-dichloro-3-(3,4-dichlorophenyl)cyclopropane-1-carboxamido)-N-(2,4-difluoro-5-(2,2,2-trifluoroacetamido)phenyl)benzamide], the pest or weed control at 50 µg/cm2 in assay [1] (setting [12]) and in assay [3] (setting [14]) was 50 to 100% throughout. Besides, the pest or weed control at 200 µg/mL in assay [2] (setting [13]) lay within 0 to 80%. The YFM result in assay [4] (setting [15]) is on record as “A (80–100)”.
Take `CN(C(=O)CC#N)c1c(F)ccc(NC(=O)c2cc(NC(=O)[C@H]3[C@H](c4ccc(Cl)c(Cl)c4)C3(Cl)Cl)ccc2Cl)c1F` [F1617, 2-Chloro-N-(3-(2-cyano-N-methylacetamido)-2,4-difluorophenyl)-5-((1R,3R)-2,2-dichloro-3-(3,4-dichlorophenyl)cyclopropane-1-carboxamido)benzamide]: the pest or weed control at 50 µg/cm2 in assay [1] (setting [5]) and in assay [3] (setting [7]) was 50 to 100% throughout. In addition, the pest or weed control at 200 µg/mL in assay [2] (setting [6]) was in the range of 0 to 80%. The YFM entry in assay [4] (setting [8]) was “A (80–100)”.
On to `CN(C(=O)C(F)F)c1c(F)ccc(NC(=O)c2cc(NC(=O)[C@H]3[C@H](c4ccc(F)c(Cl)c4)C3(Cl)Cl)ccc2Cl)c1F` [F1460, 2-Chloro-5-((1R,3R)-2,2-dichloro-3-(3-chloro-4-fluorophenyl)cyclopropane-1-carboxamido)-N-(3-(2,2-difluoro-N-methylacetamido)-2,4-difluorophenyl)benzamide], for which the pest or weed control at 50 µg/cm2 in assay [1] (setting [5]) and in assay [3] (setting [7]) was 50 to 100% throughout. Moreover, the pest or weed control at 200 µg/mL in assay [2] (setting [6]) lay in the range of 80 to 100%. In addition, the YFM result in assay [4] (setting [8]) is “A (80–100)”.
For the compound `O=C(Nc1ccc(F)c(NC(=O)C(F)(F)Cl)c1F)c1cc(NC(=O)[C@H]2[C@H](c3ccc(Cl)c(Cl)c3)C2(Cl)Cl)ccc1Cl` [F1248, 2-Chloro-N-(3-(2-chloro-2,2-difluoroacetamido)-2,4-difluorophenyl)-5-((1R,3R)-2,2-dichloro-3-(3,4-dichlorophenyl)cyclopropane-1-carboxamido)benzamide], the pest or weed control at 50 µg/cm2 in assay [1] (setting [12]) and in assay [3] (setting [14]) was 50 to 100% throughout. For the same compound, in assay [2] (setting [13]), the pest or weed control at 200 µg/mL lay in the range of 80 to 100%. The YFM result in assay [4] (setting [15]) is “A (80–100)”.
Regarding `CC(=O)Nc1cc(NC(=O)c2cc(NC(=O)[C@H]3[C@H](c4ccc(Cl)c(Cl)c4)C3(Cl)Cl)ccc2Cl)c(F)cc1F` [F1246, N-(5-Acetamido-2,4-difluorophenyl)-2-Chloro-5-((1R,3R)-2,2-dichloro-3-(3,4-dichlorophenyl)cyclopropane-1-carboxamido)benzamide], the pest or weed control at 50 µg/cm2 in assay [1] (setting [12]) and in assay [3] (setting [14]) was 50 to 100% throughout. The pest or weed control at 200 µg/mL in assay [2] (setting [13]) lay within 80 to 100%. The YFM entry in assay [4] (setting [15]) was “A (80–100)”.
`O=C(NCCCCl)c1c(Cl)ccc(NC(=O)[C@H]2[C@H](c3ccc(F)c(Cl)c3)C2(Cl)Cl)c1Cl` (relative stereo) [F2026, trans-2,6-Dichloro-N-(3-chloropropyl)-3-(2,2-dichloro-3-(3-chloro-4-fluorophenyl)cyclopropane-1-carboxamido)benzamide]: the pest or weed control at 50 µg/cm2 in assay [1] (setting [9]) and in assay [3] (setting [11]) was 50 to 100% throughout. Besides, in assay [2] (setting [10]), the pest or weed control at 200 µg/mL lay in the range of 0 to 80%. Also, the YFM rating entry in assay [4] (Yellow Fever Mosquito) is on record as “A (80–100)”.
With `O=C(Nc1ccc(F)c(NC(=O)C(F)F)c1F)c1cc(NC(=O)[C@H]2[C@H](c3ccc(Cl)c(C(F)(F)F)c3)C2(Cl)Cl)ccc1Cl` [F1657, 2-Chloro-5-((1R,3R)-2,2-dichloro-3-(4-chloro-3-(trifluoromethyl)phenyl)cyclopropane-1-carboxamido)-N-(3-(2,2-difluoroacetamido)-2,4-difluorophenyl)benzamide], the pest or weed control at 50 µg/cm2 in assay [1] (setting [5]) and in assay [3] (setting [7]) was 50 to 100% throughout. Also, in assay [2] (setting [6]), the pest or weed control at 200 µg/mL is 80 to 100%. Also, the YFM entry in assay [4] (setting [8]) is given as “A (80–100)”.
On to `Nc1ccc(F)c(NC(=O)c2cc(NC(=O)[C@H]3[C@H](c4cc(Cl)cc(Cl)c4)C3(Cl)Cl)ccc2Cl)c1F` [F1227, N-(3-Amino-2,6-difluorophenyl)-2-chloro-5-((1R,3R)-2,2-dichloro-3-(3,5-dichlorophenyl)cyclopropane-1-carboxamido)benzamide], for which the pest or weed control at 50 µg/cm2 in assay [1] (setting [12]) and in assay [3] (setting [14]) was 50 to 100% in each case. For the same compound, the pest or weed control at 200 µg/mL in assay [2] (setting [13]) was in the range of 0 to 80%. Also, the YFM entry in assay [4] (setting [15]) is reported as “A (80–100)”.
On to `O=C(Nc1ccc(F)c(NC(=O)C(F)F)c1F)c1cc(NC(=O)[C@H]2[C@H](c3ccc(F)cc3)C2(Cl)Cl)ccc1Cl` (relative stereo) [F1598, trans-2-Chloro-5-(2,2-dichloro-3-(4-fluorophenyl)cyclopropane-1-carboxamido)-N-(3-(2,2-difluoroacetamido)-2,4-difluorophenyl)benzamide], for which the pest or weed control at 50 µg/cm2 in assay [1] (setting [5]) and in assay [3] (setting [7]) was 50 to 100% throughout. Moreover, the pest or weed control at 200 µg/mL in assay [2] (setting [6]) is 80 to 100%. Besides, in assay [4] (setting [8]), the YFM result was “A (80–100)”.
